Experimental data reported in US10722480B2, “Agent for controlling cells constituting cancer microenvironment or inflammatory microenvironment” (The University of Tokyo, priority 2015, dated 2020).

Tests used:
FROUNT-CCR2 interaction = target: T1, FROUNT-CCR2 interaction (Homo sapiens, UniProt Q9BW27); assay: HTRF binding inhibition assay, FROUNT-CCR2 interaction
T1 construct: made in house
T1 sequence (Q9BW27 500-656): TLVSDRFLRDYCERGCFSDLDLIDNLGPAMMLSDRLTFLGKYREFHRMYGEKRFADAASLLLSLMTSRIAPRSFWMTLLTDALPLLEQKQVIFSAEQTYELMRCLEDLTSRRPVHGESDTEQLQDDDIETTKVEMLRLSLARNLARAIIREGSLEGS
Experimental: For the screening, a compound library containing 131,200 kinds of compounds dissolved in DMSO at a concentration of 10 mM or 2 mM (obtained from Open Innovation Center for Drug Discovery, the University of Tokyo) was used. The HTRF assay was carried out using a 384-well low-dose white microplate (Corning Coaster; catalog number 3676). In each well, 4 μL of a solution of 20 nM GST fusion FROUNT protein (a recombinant polypeptide prepared by fusing GST to aa 500-656 of SEQ ID NO:2), and DMSO or test compounds were mixed with a binding buffer (10 mM HEPES [pH 7.4], 0.2 M potassium fluoride, 10 mM NaCl, 0.1% Tween 20, and 0.5% bovine serum albumin [BSA]), and the plate was incubated at room temperature for 30 minutes. […]. After incubation at room temperature for 20 hours, the HTRF signal was measured at emission wavelengths of 620 nm and 665 nm using a multilabel counter EnVision (PerkinElmer).
(§1) By the same HTRF assay as described above, the abilities of disulfiram to inhibit the FROUNT-CCR2 interaction or the FROUNT-CCR5 interaction were investigated. As the CCR5 pro-C peptide, the 16 residues […] (SEQ ID NO:4) in the C-terminal region of CCR5 was used. As a control, the p53-MDM2 interaction (which is inhibited by an MDM-2-specific inhibitor Nutlin), which is also a helix peptide-protein interaction like the interaction between FROUNT and CCR2 or CCR5 but is not related thereto, was used.

p53-MDM2 interaction = p53-MDM2 interaction (Homo sapiens, UniProt Q00987); assay: HTRF binding inhibition assay, p53-MDM2 control interaction
Sequence of p53-MDM2 interaction (Q00987 whole entry): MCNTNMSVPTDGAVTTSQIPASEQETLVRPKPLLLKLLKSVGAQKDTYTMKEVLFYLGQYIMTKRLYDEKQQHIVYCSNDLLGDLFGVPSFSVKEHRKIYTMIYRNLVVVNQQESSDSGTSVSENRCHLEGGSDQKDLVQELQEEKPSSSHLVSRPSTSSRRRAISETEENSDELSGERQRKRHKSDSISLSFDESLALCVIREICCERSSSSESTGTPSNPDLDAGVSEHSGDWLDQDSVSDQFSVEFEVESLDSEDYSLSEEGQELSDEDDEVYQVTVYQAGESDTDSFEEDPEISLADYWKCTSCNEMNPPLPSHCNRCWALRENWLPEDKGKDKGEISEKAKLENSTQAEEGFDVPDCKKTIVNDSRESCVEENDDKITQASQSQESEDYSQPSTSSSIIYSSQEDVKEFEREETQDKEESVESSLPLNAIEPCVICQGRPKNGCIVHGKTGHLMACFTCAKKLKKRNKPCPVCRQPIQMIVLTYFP
Text: as §1

CCR2 = target: T2, CCR2 (Homo sapiens, UniProt P41597); assay: Surface plasmon resonance binding to CCR2; settings: SPR
T2 sequence (P41597 1-360 isoform P41597-2): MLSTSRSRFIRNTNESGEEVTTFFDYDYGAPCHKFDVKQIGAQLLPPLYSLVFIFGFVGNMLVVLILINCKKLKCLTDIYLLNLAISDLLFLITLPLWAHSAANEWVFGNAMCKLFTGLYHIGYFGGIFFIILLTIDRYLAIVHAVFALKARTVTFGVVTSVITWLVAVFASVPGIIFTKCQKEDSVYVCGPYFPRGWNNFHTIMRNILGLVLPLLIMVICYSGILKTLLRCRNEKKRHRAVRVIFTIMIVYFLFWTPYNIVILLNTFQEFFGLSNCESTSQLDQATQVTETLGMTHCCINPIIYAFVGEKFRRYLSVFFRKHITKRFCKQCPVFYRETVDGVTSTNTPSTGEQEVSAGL

[1] = tested on: human leukocyte cell line THP-1; assay: In vitro chemotaxis assay, THP-1; type: cell-based; settings: THP-1, concentration without cytotoxicity
Experimental: A human leukocyte cell line THP-1 was counted and resuspended in Boyden buffer (RPMI medium supplemented with 0.1% BSA), and the cells were preincubated with disulfiram before the chemotaxis assay. The cell migration activity was measured using a 96-well ChemoTX Chemotaxis Chamber (Neuro probe) with a polycarbonate filter with a pore size of […] Chemokine was applied to the lower chamber of the plate, and the cells were applied to the upper chamber. After incubation at 37° C. in 5% CO2 for 90 minutes, the filter was removed, and the number of migrated cells in the lower chamber was counted using Cell Counting Kit F (Dojindo Laboratories).

[2] = tested on: macrophages in tumor sites; assay: Macrophage accumulation in tumor sites (lung metastasis model); type: in vivo, mouse; settings: wild-type mice, vs solvent
Experimental: Lung cells of the lung metastasis model of wild-type mice described in the section 4 above or lung cells of the lung metastasis model of FNT-cKO mice and FNT^flox/flox mice described in the section 7(2) above were obtained from the right lower lobe by digestion with collagenase and DNase. The cells were washed with PBS supplemented with 2% fetal bovine serum, resuspended, and filtered through a 70-μm strainer. The Fc receptor was blocked by incubation with an anti-mouse CD16/32 antibody (BD biosciences), and thereafter the cells were stained with a fluorescently labeled antibody. Anti-mouse CD11b-Brilliant Violet 510, anti-mouse Ly6C-APC-Cy7, and anti-mouse Ly6G-Alexa Fluor 700 were purchased from Biolegend. The stained cells were analyzed using the Gallios flow cytometer (Beckman coulter). Each mouse was perfused with PBS, and the left lung was isolated. Optimal Cutting Temperature Compound (OCT) (Sakura Finetek) was injected from the trachea to embed the lung in OCT, and the lung was then frozen in liquid nitrogen. Fresh frozen sections with a thickness of 8 μm were prepared, and fixed with 4% paraformaldehyde-PBS. […] Fluorescence Images were obtained with an SP5 confocal microscope (Leica Microsystems).

LLC tumor = assay: Combined use with anti-PD-1 antibody, LLC tumor-bearing model; type: in vivo, mouse; settings: DSF in feed from Day 4, anti-PD-1 antibody 0.2 mg i.p. x4
Experimental: (§2) To provide an example of combined use of an anticancer drug and disulfiram (DSF), the effect of combined use of an anti-PD-1 antibody, which is an anticancer drug targeting an immune checkpoint molecule, and DSF was studied using an LLC tumor-bearing model and a B16 tumor-bearing model. The B16 tumor-bearing model was prepared by transplanting 5×10^5 B16 melanoma cells to the right abdomen of each of wild-type C57BL/6 mice. Preparation of the LLC tumor-bearing model was carried out in the same manner as in the above-described section 3. A feed supplemented with DSF was provided in the same manner as in the above-described section 3.
(§3) The day of the transplantation of the tumor cells to the mice was defined as Day 0. From Day 4, the mice were fed with the feed supplemented with DSF or a control feed every day during the experimental period. An anti-PD-1 antibody (J43, manufactured by BioXcell) was intraperitoneally administered once at a dose of 0.2 mg on each of Day 5, Day 8, Day 14, and Day 18 (four times in total). To provide a control for the antibody administration, PBS was intraperitoneally administered. The tumor size was measured using a caliper twice a week, and the tumor volume was calculated.

B16 melanoma cells = assay: Combined use with anti-PD-1 antibody, B16 tumor-bearing model; type: in vivo, mouse; settings: DSF in feed from Day 4, anti-PD-1 antibody 0.2 mg i.p. x4
Experimental: as §2, §3

- inhibitory action against FROUNT-CCR2 relative to p53-MDM2 (FROUNT-CCR2 interaction): about 100 times
- inhibition of FROUNT-CCR2 interaction (FROUNT-CCR2 interaction; HTRF, result in words): selectively inhibited
- IC50 (FROUNT-CCR2 interaction; HTRF, read-out: FROUNT inhibition (IC50 against FROUNT-CCR2)): 42 nM
- IC50 (p53-MDM2 interaction; p53-MDM2 control interaction): > 1000 nM
- inhibition of p53-MDM2 interaction (p53-MDM2 interaction; result in words): did not inhibit
- binding to CCR2 (CCR2): did not bind
Structure (SMILES): CCN(CC)C(=S)SSC(=S)N(CC)CC [DSF, disulfiram]
- cell migration mediated by CCL2 [1]: inhibited
- accumulation of macrophages in tumor sites [2]: reduced
- hyperplasia of cancer cells (tumor volume) (LLC tumor): inhibited
- inhibitory effect on cancer hyperplasia (tumor volume) (B16 melanoma cells): not observed at a significant level
